Measurements published in patent US10047105B2, “Gyrase inhibitors” (Merck Sharp & Dohme Corp., priority 2009, dated 2018).
In brackets after ≈: the same amount, converted by molar mass.

Experiments:
S. aureus ATCC 13709 = assay: MIC, antibacterial potency, S. aureus; type: cell-based
S. pneumoniae ATCC 51916 = assay: MIC, S. pneumoniae; type: cell-based
[1] = S. pneumoniae (Spn52), in µg/mL

Compound | MIC, SA (S. aureus ATCC 13709; S. aureus) [µg/mL] | MIC Spn52 (S. pneumoniae ATCC 51916; S. pneumoniae) [µg/mL] | MIC, SA (S. aureus ATCC 13709; S. aureus (SA), in µg/mL) | MIC Spn52 (S. pneumoniae ATCC 51916; [1])
CCc1[nH]c2nc(Sc3cnc4nccnc4c3)nc(N3CCNCC3)c2c1Cl.O=C(O)C(F)(F)F [700,791] | – | – | 64 | 16
CCc1[nH]c2nc(Sc3cnc4nccnc4c3)nc(N3CCC(n4c(=O)[nH]c5cc(Cl)ccc54)CC3)c2c1Cl.O=C(O)C(F)(F)F [700,792] | – | – | >64 | >64
CCc1[nH]c2nc(Oc3cncc(C#N)c3)nc(Oc3cccc(C#N)c3)c2c1Br.O=C(O)C(F)(F)F [700,793] | – | – | <=0.5 | <=0.5
CCc1[nH]c2nc(Sc3cnc4c(c3)OCCN4C)nc(N3CC(N)C3)c2c1Cl.O=C(O)C(F)(F)F [700,794] | – | – | 16 | 32
CCc1[nH]c2nc(Sc3cnc4cccnc4c3)nc(N3CC4CNC4C3)c2c1Cl.O=C(O)C(F)(F)F.O=C(O)C(F)(F)F (stereo not drawn) [700,796] | – | – | <=0.5 | 1
CCc1[nH]c2nc(Sc3cnc4c(c3)ncc(=O)n4CCCN3CCCC3=O)nc(N3CC[C@@H](N)C3)c2c1Cl [700,797] | – | – | >32 | >32
CCc1[nH]c2nc(Sc3cnc4c(c3)ncc(=O)n4CCO)nc(N3CC[C@@H](N)C3)c2c1Cl [700,798] | – | – | 16 | 32
CCc1[nH]c2nc(Sc3cnc4c(c3)ncc(=O)n4C3CCNCC3)nc(N3CC[C@@H](N)C3)c2c1Cl [700,799] | – | – | >64 | >64
CCc1[nH]c2nc(Sc3ccc4ccc(C(=O)O)nc4c3)nc(N3CC(CNC(=O)C4CC4)C3)c2c1Cl [700,804] | – | – | 4 | 16
CCc1[nH]c2nc(Sc3ccc4ccc(C(=O)O)nc4c3)nc(N3CC(CNC(=O)c4cn(C)nc4C(F)(F)F)C3)c2c1Cl [700,805] | – | – | <=0.5 | 2
CCc1[nH]c2nc(Sc3ccc4ccc(C(=O)O)nc4c3)nc(N3CC(CNS(C)(=O)=O)C3)c2c1Cl [700,806] | – | – | 4 | 16
CCc1[nH]c2nc(Sc3ccc4ccc(C(=O)O)nc4c3)nc(N3CC(NC(=O)C4CC4)C3)c2c1Cl [700,807] | – | – | 2 | 8
CCc1[nH]c2nc(Sc3ccc4ccc(C(=O)O)nc4c3)nc(N3CC(NS(C)(=O)=O)C3)c2c1Cl [700,808] | – | – | 8 | 64
C#CCOC(=O)NC1CN(c2nc(Sc3ccc4ccc(C(=O)O)nc4c3)nc3[nH]c(CC)c(Cl)c23)C1 [700,809] | – | – | <=0.5 | 4
CCc1[nH]c2nc(Sc3cnc4c(N)nc(CN5CCOCC5)nc4c3)nc(N3CC[C@@H](N)C3)c2c1Cl [700,812] | – | – | 4 | 4
CCc1[nH]c2nc(Oc3cncc(C#N)c3)nc(Oc3ccc(OC)c(OC)c3)c2c1Cl [700,813] | – | – | >64 | >64
CCc1[nH]c2nc(Sc3cnc4nccnc4c3)nc(N3CCC(CN4CCCC4=O)CC3)c2c1Cl [700,815] | – | – | 2 | 2
CCc1[nH]c2nc(Sc3cnc4nccnc4c3)nc(N3C[C@@H]4[C@H](C3)[C@H]4N(Cc3ccccc3)Cc3ccccc3)c2c1Cl [700,822] | – | – | >64 | >64
CCc1[nH]c2nc(Sc3cnc4cccnc4c3)nc(N3C[C@@H]4[C@H](C3)[C@H]4N(Cc3ccccc3)Cc3ccccc3)c2c1Cl [700,823] | – | – | 64 | 64
CCc1[nH]c2nc(Sc3ccc4c(N5CC[C@@H](N)C5)cc(C(=O)O)nc4c3)nc(N3CC[C@@H](N)C3)c2c1Cl [700,825] | – | – | 64 | >64
CCc1[nH]c2nc(Sc3cnc4c(N)nc(CN5CCNCC5)nc4c3)nc(N3CC[C@@H](N)C3)c2c1Cl [700,826] | – | – | 8 | 32
CCc1[nH]c2nc(Sc3cnc4c(N)nc(CN5CCC(N)CC5)nc4c3)nc(N3CC[C@@H](N)C3)c2c1Cl [700,827] | – | – | 4 | 32
CCc1[nH]c2nc(Oc3cncc(C#N)c3)nc(Oc3cccc(C(=O)O)c3)c2c1Cl [700,828] | – | – | >64 | >64
CCc1[nH]c2nc(Sc3cnc4nccnc4c3)nc(N3CCC(CN)CC3)c2c1Cl [700,829] | – | – | 16 | 32
C=Cc1nc(Oc2cccc(C#N)c2)nc2[nH]c(CC)c(Cl)c12 [700,831] | – | – | 2 | 4
C=CCc1nc(Oc2ccc(Cl)c(C#N)c2)nc2[nH]c(CC)c(Cl)c12 [700,832] | – | – | 4 | >8
CCc1[nH]c2nc(Sc3cnc4nccnc4c3)nc(Oc3cccc(C#N)c3)c2c1Cl [700,833] | – | – | <=0.5 | 2
CCc1[nH]c2nc(Sc3cnc4nccnc4c3)nc(Oc3ccc(OC)c(C#N)c3)c2c1Cl [700,834] | – | – | 1 | 8
CCc1[nH]c2nc(Sc3ccc4cc5c(nc4c3)CCNC5)nc(N3CC[C@@H](N)C3)c2c1Cl [700,841] | – | – | 4 | 8

Now from value to compound:

MIC, SA (S. aureus ATCC 13709; S. aureus) [µg/mL] | MIC Spn52 (S. pneumoniae ATCC 51916; S. pneumoniae) [µg/mL] | MIC, SA (S. aureus ATCC 13709; S. aureus (SA), in µg/mL) | MIC Spn52 (S. pneumoniae ATCC 51916; [1]) | Compound
16 (≈ 41.2 µM) | 64 (≈ 165 µM) | – | – | CCc1[nH]c2nc(Sc3cncnc3)nc(N3CC4CNC4C3)c2c1Cl (stereo not drawn) [700,785]
– | – | 16 | 32 | CCc1[nH]c2nc(Sc3cncnc3)nc(N3CC(CN)C3)c2c1Cl [700,786]
– | – | 8 | 16 | CCc1[nH]c2nc(Sc3cnc(N)nc3)nc(N3CC[C@@H](N)C3)c2c1Cl [700,788]
– | – | 2 | 8 | CCc1[nH]c2nc(Sc3cnc(N)nc3)nc(N3CC4C(N)C4C3)c2c1Cl (stereo not drawn) [700,789]
– | – | 16 | 64 | CCc1[nH]c2nc(Sc3cnc(N)nc3)nc(N3CC4CNC4C3)c2c1Cl (stereo not drawn) [700,790]
– | – | <=0.5 | <=0.5 | CCc1[nH]c2nc(Sc3cnc4cccnc4c3)nc(N3CC4CCNC4C3)c2c1Cl (stereo not drawn) [700,801]
– | – | 4 | 16 | CCc1[nH]c2nc(Sc3cncnc3)nc(N3CC4CCNC4C3)c2c1Cl (stereo not drawn) [700,802]
– | – | 8 | 16 | CCc1[nH]c2nc(Sc3cnc(N)nc3)nc(N3CC4CCNC4C3)c2c1Cl (stereo not drawn) [700,803]
– | – | 2 | 4 | CCc1[nH]c2nc(Sc3cnc4nccnc4c3)nc(N3CCCC(CO)C3)c2c1Cl (stereo not drawn) [700,814]
– | – | <=0.5 | <=0.5 | CCc1[nH]c2nc(Sc3cnc4nccnc4c3)nc(N3C[C@@H]4[C@@H](N)[C@@H]4C3)c2c1Cl [700,816]
– | – | <=0.5 | <=0.5 | CCc1[nH]c2nc(Sc3cnc4cccnc4c3)nc(N3C[C@@H]4[C@@H](N)[C@@H]4C3)c2c1Cl [700,817]
– | – | 2 | 8 | CCc1[nH]c2nc(Sc3ccc(C#N)nc3)nc(N3CC[C@@H](N)C3)c2c1Cl [700,818]
– | – | 16 | 32 | CCc1[nH]c2nc(Sc3cncc(N)c3)nc(N3CC[C@@H](N)C3)c2c1Cl [700,820]
– | – | >64 | >64 | CCc1[nH]c2nc(Sc3cncc(O)c3)nc(N3CC[C@@H](N)C3)c2c1Cl [700,821]
– | – | 2 | 8 | CCc1[nH]c2nc(Sc3cncc(C#N)c3)nc(N3CC[C@@H](N)C3)c2c1Cl [700,824]
– | – | <=0.5 | 2 | CCc1[nH]c2nc(Sc3cnc4nccnc4c3)nc(N3CCC(CO)C3)c2c1Cl (stereo not drawn) [700,830]
